Data reported in patent publication US9441012B2, “Fluorinated epoxyketone-based compounds and uses thereof as proteasome inhibitors” (FLUORINOV PHARMA INC., priority 2012, dated 2016).

How the values were obtained:
Experiment in all cases: NCI 60 human tumor cell line screen (SRB)
Type in all cases: cell-based
SK-OV-3 = SK-OV-3 (Ovarian Cancer); 48 h
From the text: (§1) Representative compounds of Formula I were screened using the National Cancer Institute (NCI) screening panel, which consists of a panel of 60 different human tumor cell lines, representing leukemia [CCRF-CEM, HL-60 (TB), K-562, MOLT-4, SR], melanoma [LOX IMVI, MALME-3M, M14, SMDA-MB-435, SK-MEL-2, SK-MEL-28, SK-MEL-5, UACC-257 and UACC-62] and cancers of the lung [A549/ATCC, EKVX, HOP-62, HOP-93, NCI-H226, NCI-H23, NCI-H322M, NCI-H460], colon [COLO 205, HCT-116, HCT-15, HT29, KM12, SW-620], brain [SF-268, SF-295, SF-539, SNB-19, SNB-75, U251], ovary [IGROV1, OVCAR-3, OVCAR-4, OVCAR-5, OVCAR-8, NCI/ADR-RES, SK-OV-3], breast [MCF7, MDA-MB-231, BT-549, T-47D, MDA-MB-468], prostate [PC-3, DU-145], and renal[786-0, A498, ACHN, CAKI-1, RXF-393, SN12C, TK-10, UO-31] cancers.
(§2) After 24 h, two plates of each cell line are fixed in situ with TCA, to represent a measurement of the cell population for each cell line at the time of drug addition (Tz). Experimental drugs are solubilised in dimethyl sulfoxide at 400-fold the desired final maximum test concentration and stored frozen prior to use. At the time of drug addition, an aliquot of frozen concentrate is thawed and diluted to twice the desired final maximum test concentration with complete medium containing 50 μg/ml gentamicin. Additional four, 10-fold or ½ log serial dilutions are made to provide a total of five drug concentrations plus control. Aliquots of 100 μl of these different drug dilutions are added to the appropriate microtiter wells already containing 100 μl of medium, resulting in the required final drug concentrations.
(§3) Following drug addition, the plates are incubated for an additional 48 h at 37° C., 5% CO2, 95% air, and 100% relative humidity. For adherent cells, the assay is terminated by the addition of cold TCA (trichloroacetic acid). Cells are fixed in situ by the gentle addition of 50 μl of cold 50% (w/v) TCA (final concentration, 10% TCA) and incubated for 60 minutes at 4° C. The supernatant is discarded, and the plates are washed five times with tap water and air dried. Sulforhodamine B (SRB) solution (100 μl) at 0.4% (w/v) in 1% acetic acid is added to each well, and plates are incubated for 10 minutes at room temperature. After staining, unbound dye is removed by washing five times with 1% acetic acid and the plates are air dried. Bound stain is subsequently solubilised with 10 mM trizma base, and the absorbance is read on an automated plate reader at a wavelength of 515 nm. For suspension cells, the methodology is the same except that the assay is terminated by fixing settled cells at the bottom of the wells by gently adding 50 μl of 80% TCA (final concentration, 16% TCA). Using the seven absorbance measurements [time zero, (Tz), control growth, (C), and test growth in the presence of drug at the five concentration levels (Ti)], the percentage growth is calculated at each of the drug concentration levels. Percentage growth inhibition is calculated as: [(Ti−Tz)/(C−Tz)]×100 for concentrations in which Ti>/=Tz and [(Ti−Tz)/Tz]×100 for concentrations in which Ti<Tz.
(§4) Three dose response parameters are calculated for each experimental agent. Growth inhibition of 50% (GI50) is calculated from [(Ti−Tz)/(C−Tz)]100=50, which is the drug concentration resulting in a 50% reduction in the net protein increase (as measured by SRB staining) in control cells during the drug incubation. The drug concentration resulting in total growth inhibition (TGI) is calculated from Ti=Tz. The LC50 (concentration of drug resulting in a 50% reduction in the measured protein at the end of the drug treatment as compared to that at the beginning) indicating a net loss of cells following treatment is calculated from [(Ti−Tz)/Tz]×100=−50. Values are calculated for each of these three parameters if the level of activity is reached. However, if the effect is not reached or is exceeded, the value for that parameter is expressed as greater or less than the maximum or minimum concentration tested.

A498 = A498 (Renal Cancer); 48 h
From the text: as §1, §2, §3, §4

OVCAR-4 = OVCAR-4 (Ovarian Cancer); 48 h
From the text: as §1, §2, §3, §4

DU-145 = DU-145 (Prostate Cancer); 48 h
From the text: as §1, §2, §3, §4

SF-268 = SF-268 (CNS Cancer); 48 h
From the text: as §1, §2, §3, §4

SK-MEL-5 = SK-MEL-5 (Melanoma); 48 h
From the text: as §1, §2, §3, §4

U251 = U251 (CNS Cancer); 48 h
From the text: as §1, §2, §3, §4

MDA-MB-468 = MDA-MB-468 (Breast Cancer); 48 h
From the text: as §1, §2, §3, §4

M14 = M14 (Melanoma); 48 h
From the text: as §1, §2, §3, §4

MDA-MB-231/ATCC = MDA-MB-231/ATCC (Breast Cancer); 48 h
From the text: as §1, §2, §3, §4

K-562 = K-562 (Leukemia); 48 h
From the text: as §1, §2, §3, §4

COLO 205 = COLO 205 (Colon Cancer); 48 h
From the text: as §1, §2, §3, §4

| SMILES | Log10GI50 (SK-OV-3) | Log10TGI50 (SK-OV-3) | Log10GI50 (A498) | Log10LC50 (A498) | Log10TGI50 (A498) | Log10GI50 (OVCAR-4) | Log10TGI50 (OVCAR-4) | Log10GI50 (DU-145) | Log10LC50 (DU-145) | Log10TGI50 (DU-145) | Log10GI50 (SF-268) | Log10LC50 (SF-268) | Log10TGI50 (SF-268) | Log10GI50 (SK-MEL-5) | Log10LC50 (SK-MEL-5) | Log10TGI50 (SK-MEL-5) | Log10GI50 (U251) | Log10LC50 (U251) | Log10TGI50 (U251) | Log10GI50 (MDA-MB-468) | further results |
| --- | --- | --- | --- | --- | --- | --- | --- | --- | --- | --- | --- | --- | --- | --- | --- | --- | --- | --- | --- | --- | --- |
| CC(C)C[C@H](NC(=O)[C@H](Cc1ccccc1)NC(=O)[C@H](COC(F)F)NC(=O)CN1CCOCC1)C(=O)[C@@]1(C)CO1 [Example 25, (2S)-2-[[(2S)-3-(difluoromethoxy)-2-[(2-morpholinoacetyl)amino]propanoyl]amino]-N-[(1S)-3-methyl-1-[(2R)-2-methyloxirane-2-carbonyl]butyl]-3-phenyl-propanamide] | −7.30 | −6.60 | −7.61 | −6.34 | −7.03 | −7.50 | −6.75 | −7.27 | >−4.00 | −5.32 | −7.60 | >−4.00 | −7.14 | −7.60 | −6.49 | −7.17 | −7.44 | >−4.00 | −6.75 | −7.54 | Log10LC50 (OVCAR-4): >−4.00; Log10LC50 (MDA-MB-468): >−4.00; Log10TGI50 (MDA-MB-468): −6.96; Log10GI50 (M14): −7.48; Log10LC50 (M14): >−4.00; Log10TGI50 (M14): −6.71; Log10GI50 (MDA-MB-231/ATCC): −7.52; Log10LC50 (MDA-MB-231/ATCC): −4.21; Log10TGI50 (MDA-MB-231/ATCC): −6.80; Log10GI50 (K-562): −7.41; Log10LC50 (K-562): >−4.00; Log10TGI50 (K-562): >−4.00; Log10GI50 (COLO 205): −7.39; Log10LC50 (COLO 205): −6.21; Log10TGI50 (COLO 205): −6.76 |
| C[C@]1(C(=O)[C@H](Cc2ccccc2)NC(=O)[C@H](Cc2ccccc2)NC(=O)[C@H](COC(F)F)NC(=O)CN2CCOCC2)CO1 [Example 29] | −6.46 | −5.78 | −6.68 | −5.47 | −6.11 | −6.98 | >−4.00 | −7.00 | −4.09 | −5.05 | −7.27 | >−4.00 | −6.50 | −7.22 | −6.20 | −6.66 | −6.98 | >−4.00 | −5.70 | −6.67 | Log10LC50 (SK-OV-3): >−4.00; Log10LC50 (MDA-MB-468): >−4.00; Log10TGI50 (MDA-MB-468): −6.10; Log10GI50 (M14): −7.21; Log10LC50 (M14): >−4.00; Log10TGI50 (M14): −5.85; Log10GI50 (MDA-MB-231/ATCC): −7.04; Log10LC50 (MDA-MB-231/ATCC): −4.44; Log10TGI50 (MDA-MB-231/ATCC): −6.27; Log10GI50 (K-562): −7.00; Log10LC50 (K-562): >−4.00; Log10TGI50 (K-562): >−4.00; Log10GI50 (COLO 205): −6.90; Log10LC50 (COLO 205): −5.34; Log10TGI50 (COLO 205): −6.32 |
